Experimental data: article PMC8800111 (The Journal of Biological Chemistry, 2021)

What was measured:
Format in all cases: cell-based
[1] = biological target: proteins of U3A human fibrosarcoma cells (4462 proteins detected) (Homo sapiens, UniProt P78347); conditions: protein GTF2I; U3A cells
[2] = biological target: proteins of U3A human fibrosarcoma cells (4462 proteins detected) (Homo sapiens, UniProt Q8TD30); conditions: protein GPT2; U3A cells
[3] = biological target: proteins of U3A human fibrosarcoma cells (4462 proteins detected) (Homo sapiens, UniProt Q8TDN6); conditions: protein BRIX1; U3A cells
[4] = biological target: proteins of U3A human fibrosarcoma cells (4462 proteins detected) (Homo sapiens, UniProt Q9GZT3); conditions: protein SLIRP, U3A cells
[5] = biological target: proteins of U3A human fibrosarcoma cells (4462 proteins detected) (Homo sapiens, UniProt O75663); conditions: protein TIPRL; soluble abundance after heat, U3A cells
[6] = biological target: proteins of U3A human fibrosarcoma cells (4462 proteins detected) (Homo sapiens, UniProt Q9H3H3); conditions: protein C11orf68; soluble abundance after heat, U3A cells
[7] = biological target: proteins of U3A human fibrosarcoma cells (4462 proteins detected) (Homo sapiens, UniProt P48643); conditions: protein CCT5; U3A cells
[8] = biological target: proteins of U3A human fibrosarcoma cells (4462 proteins detected) (Homo sapiens, UniProt Q9UHL4); conditions: protein DPP7; U3A cells
[9] = biological target: proteins of U3A human fibrosarcoma cells (4462 proteins detected) (Homo sapiens, UniProt P36542); conditions: protein ATP5C1; U3A cells
[10] = biological target: proteins of U3A human fibrosarcoma cells (4462 proteins detected) (Homo sapiens, UniProt Q8NHQ9); conditions: protein DDX55; U3A cells
[11] = biological target: proteins of U3A human fibrosarcoma cells (4462 proteins detected) (Homo sapiens, UniProt Q9NZ52); conditions: protein GGA3; soluble abundance after heat, U3A cells
[12] = biological target: proteins of U3A human fibrosarcoma cells (4462 proteins detected) (Homo sapiens, UniProt P29317); conditions: protein EPHA2; soluble abundance after heat, U3A cells
[13] = biological target: proteins of U3A human fibrosarcoma cells (4462 proteins detected) (Homo sapiens, UniProt P57105); conditions: protein SYNJ2BP-COX16; SYNJ2BP, U3A cells
[14] = biological target: proteins of U3A human fibrosarcoma cells (4462 proteins detected) (Homo sapiens, UniProt P35232); conditions: protein PHB; U3A cells
[15] = biological target: proteins of U3A human fibrosarcoma cells (4462 proteins detected) (Homo sapiens, UniProt Q92692); conditions: protein PVRL2; U3A cells
[16] = biological target: proteins of U3A human fibrosarcoma cells (4462 proteins detected) (Homo sapiens, UniProt P35606); conditions: protein COPB2; soluble abundance after heat, U3A cells
[17] = biological target: proteins of U3A human fibrosarcoma cells (4462 proteins detected) (Homo sapiens, UniProt Q8WW12); conditions: protein PCNP, U3A cells
[18] = biological target: proteins of U3A human fibrosarcoma cells (4462 proteins detected) (Homo sapiens, UniProt P00568); conditions: protein AK1, U3A cells
[19] = biological target: proteins of U3A human fibrosarcoma cells (4462 proteins detected) (Homo sapiens, UniProt Q99633); conditions: protein PRPF18; U3A cells
[20] = biological target: proteins of U3A human fibrosarcoma cells (4462 proteins detected) (Homo sapiens, UniProt Q8N9N2); conditions: protein ASCC1; U3A cells
[21] = biological target: proteins of U3A human fibrosarcoma cells (4462 proteins detected) (Homo sapiens, UniProt O60291); conditions: protein MGRN1; U3A, 10 μM, 2 h
[22] = biological target: proteins of U3A human fibrosarcoma cells (4462 proteins detected) (Homo sapiens, UniProt O75533); conditions: protein SF3B1; U3A cells
[23] = biological target: proteins of U3A human fibrosarcoma cells (4462 proteins detected) (Homo sapiens, UniProt Q9NQZ2); conditions: protein UTP3; soluble abundance after heat, U3A cells
[24] = biological target: proteins of U3A human fibrosarcoma cells (4462 proteins detected) (Homo sapiens, UniProt P39748); conditions: protein FEN1; U3A, 10 μM, 2 h
[25] = biological target: proteins of U3A human fibrosarcoma cells (4462 proteins detected) (Homo sapiens, UniProt P04818); conditions: PISA
[26] = biological target: proteins of U3A human fibrosarcoma cells (4462 proteins detected) (Homo sapiens, UniProt Q9NYZ3); conditions: protein GTSE1; U3A cells
[27] = biological target: proteins of U3A human fibrosarcoma cells (4462 proteins detected) (Homo sapiens, UniProt Q8IYW5); conditions: protein RNF168; U3A cells
[28] = biological target: proteins of U3A human fibrosarcoma cells (4462 proteins detected) (Homo sapiens, UniProt Q13829); conditions: protein TNFAIP1; U3A cells
[29] = biological target: proteins of U3A human fibrosarcoma cells (4462 proteins detected) (Homo sapiens, UniProt P50995); conditions: protein ANXA11; U3A cells
[30] = biological target: proteins of U3A human fibrosarcoma cells (4462 proteins detected) (Homo sapiens, UniProt O15066); conditions: protein KIF3B; U3A cells

Sequence of proteins of U3A human fibrosarcoma cells (4462 proteins detected) (Homo sapiens, UniProt Q8WW12) (Q8WW12 whole entry): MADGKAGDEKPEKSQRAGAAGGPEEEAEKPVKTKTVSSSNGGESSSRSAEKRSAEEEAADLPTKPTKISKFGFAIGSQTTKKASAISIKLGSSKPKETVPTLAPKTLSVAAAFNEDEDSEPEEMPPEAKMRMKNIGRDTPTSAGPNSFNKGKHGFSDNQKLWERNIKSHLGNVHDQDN
Sequence of proteins of U3A human fibrosarcoma cells (4462 proteins detected) (Homo sapiens, UniProt Q9NYZ3) (Q9NYZ3 whole entry): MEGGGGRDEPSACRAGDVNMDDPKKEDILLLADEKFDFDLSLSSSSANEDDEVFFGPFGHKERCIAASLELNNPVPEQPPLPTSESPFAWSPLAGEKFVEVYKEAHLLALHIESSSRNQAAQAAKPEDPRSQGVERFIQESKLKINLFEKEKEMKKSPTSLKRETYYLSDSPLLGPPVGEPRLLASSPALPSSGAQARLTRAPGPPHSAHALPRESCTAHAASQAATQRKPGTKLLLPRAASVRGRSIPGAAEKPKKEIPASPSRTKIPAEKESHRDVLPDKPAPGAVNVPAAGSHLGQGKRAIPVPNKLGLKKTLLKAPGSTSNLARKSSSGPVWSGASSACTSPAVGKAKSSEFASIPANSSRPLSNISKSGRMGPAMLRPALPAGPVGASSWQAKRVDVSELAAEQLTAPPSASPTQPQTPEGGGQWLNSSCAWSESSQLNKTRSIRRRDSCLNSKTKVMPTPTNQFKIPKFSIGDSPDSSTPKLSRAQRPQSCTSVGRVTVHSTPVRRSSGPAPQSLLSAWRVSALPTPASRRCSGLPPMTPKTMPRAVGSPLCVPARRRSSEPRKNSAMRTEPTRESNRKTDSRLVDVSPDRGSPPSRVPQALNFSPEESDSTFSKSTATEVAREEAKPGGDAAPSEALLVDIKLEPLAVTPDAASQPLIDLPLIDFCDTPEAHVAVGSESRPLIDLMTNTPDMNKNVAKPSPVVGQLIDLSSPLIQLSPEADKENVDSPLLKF
Sequence of proteins of U3A human fibrosarcoma cells (4462 proteins detected) (Homo sapiens, UniProt Q92692) (Q92692 32-538): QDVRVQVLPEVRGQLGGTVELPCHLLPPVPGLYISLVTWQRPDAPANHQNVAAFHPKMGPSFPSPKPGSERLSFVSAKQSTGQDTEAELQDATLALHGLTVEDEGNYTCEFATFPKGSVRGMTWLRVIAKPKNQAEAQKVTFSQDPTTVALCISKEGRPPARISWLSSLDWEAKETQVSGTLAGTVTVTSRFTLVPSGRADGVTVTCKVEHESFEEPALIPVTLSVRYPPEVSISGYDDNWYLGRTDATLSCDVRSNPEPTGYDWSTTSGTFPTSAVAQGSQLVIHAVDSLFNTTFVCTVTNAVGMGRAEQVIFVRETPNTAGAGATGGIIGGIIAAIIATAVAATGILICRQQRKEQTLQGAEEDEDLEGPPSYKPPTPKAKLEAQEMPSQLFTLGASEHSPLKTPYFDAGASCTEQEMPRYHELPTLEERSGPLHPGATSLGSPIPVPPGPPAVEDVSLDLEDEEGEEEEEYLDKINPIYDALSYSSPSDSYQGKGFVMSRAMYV
Sequence of proteins of U3A human fibrosarcoma cells (4462 proteins detected) (Homo sapiens, UniProt P57105) (P57105 whole entry): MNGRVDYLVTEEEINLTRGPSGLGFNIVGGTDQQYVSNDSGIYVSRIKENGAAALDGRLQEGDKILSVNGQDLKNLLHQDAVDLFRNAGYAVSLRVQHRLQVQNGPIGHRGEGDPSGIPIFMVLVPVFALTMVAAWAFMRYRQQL
Sequence of proteins of U3A human fibrosarcoma cells (4462 proteins detected) (Homo sapiens, UniProt P04818) (P04818 whole entry): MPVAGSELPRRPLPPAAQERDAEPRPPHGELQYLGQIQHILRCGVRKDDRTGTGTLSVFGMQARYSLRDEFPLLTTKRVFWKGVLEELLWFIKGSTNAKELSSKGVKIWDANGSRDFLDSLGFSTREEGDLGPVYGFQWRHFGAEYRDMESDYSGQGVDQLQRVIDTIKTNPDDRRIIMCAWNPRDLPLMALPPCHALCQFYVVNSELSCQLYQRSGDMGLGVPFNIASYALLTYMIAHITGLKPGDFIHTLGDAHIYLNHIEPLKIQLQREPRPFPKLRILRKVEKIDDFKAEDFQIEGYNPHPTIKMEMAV
Sequence of proteins of U3A human fibrosarcoma cells (4462 proteins detected) (Homo sapiens, UniProt O75533) (O75533 whole entry): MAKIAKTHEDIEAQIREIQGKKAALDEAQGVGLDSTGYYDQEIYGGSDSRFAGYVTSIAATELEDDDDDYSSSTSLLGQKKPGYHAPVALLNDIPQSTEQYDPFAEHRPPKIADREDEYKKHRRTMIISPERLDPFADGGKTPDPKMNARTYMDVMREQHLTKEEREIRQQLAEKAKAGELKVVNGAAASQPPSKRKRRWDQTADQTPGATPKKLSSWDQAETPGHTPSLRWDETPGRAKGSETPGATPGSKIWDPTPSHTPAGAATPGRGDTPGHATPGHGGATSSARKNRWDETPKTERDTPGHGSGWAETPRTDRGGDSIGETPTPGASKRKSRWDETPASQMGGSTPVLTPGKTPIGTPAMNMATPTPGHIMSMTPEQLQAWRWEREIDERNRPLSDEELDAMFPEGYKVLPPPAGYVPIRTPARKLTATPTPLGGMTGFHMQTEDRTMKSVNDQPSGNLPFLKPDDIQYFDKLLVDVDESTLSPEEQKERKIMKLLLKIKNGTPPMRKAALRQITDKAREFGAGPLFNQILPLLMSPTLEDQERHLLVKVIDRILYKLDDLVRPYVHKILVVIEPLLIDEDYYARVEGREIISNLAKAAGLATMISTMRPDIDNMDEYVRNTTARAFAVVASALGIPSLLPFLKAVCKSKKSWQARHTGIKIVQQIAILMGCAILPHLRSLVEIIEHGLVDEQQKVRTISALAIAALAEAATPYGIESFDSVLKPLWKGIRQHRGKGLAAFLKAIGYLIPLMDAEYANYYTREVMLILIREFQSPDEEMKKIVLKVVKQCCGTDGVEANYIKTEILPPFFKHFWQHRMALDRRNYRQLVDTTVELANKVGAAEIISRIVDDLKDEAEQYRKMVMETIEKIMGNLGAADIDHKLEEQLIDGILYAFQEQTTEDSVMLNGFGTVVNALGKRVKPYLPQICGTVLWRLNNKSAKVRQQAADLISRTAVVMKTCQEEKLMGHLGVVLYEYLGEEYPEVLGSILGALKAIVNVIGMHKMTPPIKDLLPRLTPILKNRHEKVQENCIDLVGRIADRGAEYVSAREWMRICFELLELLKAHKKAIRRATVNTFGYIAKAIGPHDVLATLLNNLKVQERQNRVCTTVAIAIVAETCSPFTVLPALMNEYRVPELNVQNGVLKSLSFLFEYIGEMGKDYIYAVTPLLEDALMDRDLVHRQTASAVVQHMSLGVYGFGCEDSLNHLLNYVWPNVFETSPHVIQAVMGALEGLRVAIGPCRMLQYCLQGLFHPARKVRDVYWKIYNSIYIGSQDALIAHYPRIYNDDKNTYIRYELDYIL
Sequence of proteins of U3A human fibrosarcoma cells (4462 proteins detected) (Homo sapiens, UniProt Q8TD30) (Q8TD30 whole entry): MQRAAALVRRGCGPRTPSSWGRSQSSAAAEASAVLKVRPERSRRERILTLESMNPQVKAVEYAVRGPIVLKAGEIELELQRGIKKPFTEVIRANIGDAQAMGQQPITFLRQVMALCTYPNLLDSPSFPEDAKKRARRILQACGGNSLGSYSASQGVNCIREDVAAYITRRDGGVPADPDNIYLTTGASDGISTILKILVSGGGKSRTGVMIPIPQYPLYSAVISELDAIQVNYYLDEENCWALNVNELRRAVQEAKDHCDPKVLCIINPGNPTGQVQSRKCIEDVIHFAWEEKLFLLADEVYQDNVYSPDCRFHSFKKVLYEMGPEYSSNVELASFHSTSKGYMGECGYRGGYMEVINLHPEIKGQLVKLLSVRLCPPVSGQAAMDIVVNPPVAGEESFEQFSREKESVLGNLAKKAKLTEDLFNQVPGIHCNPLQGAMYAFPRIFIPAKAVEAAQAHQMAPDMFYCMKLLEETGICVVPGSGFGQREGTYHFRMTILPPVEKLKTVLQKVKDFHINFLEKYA
Sequence of proteins of U3A human fibrosarcoma cells (4462 proteins detected) (Homo sapiens, UniProt P35232) (P35232 whole entry): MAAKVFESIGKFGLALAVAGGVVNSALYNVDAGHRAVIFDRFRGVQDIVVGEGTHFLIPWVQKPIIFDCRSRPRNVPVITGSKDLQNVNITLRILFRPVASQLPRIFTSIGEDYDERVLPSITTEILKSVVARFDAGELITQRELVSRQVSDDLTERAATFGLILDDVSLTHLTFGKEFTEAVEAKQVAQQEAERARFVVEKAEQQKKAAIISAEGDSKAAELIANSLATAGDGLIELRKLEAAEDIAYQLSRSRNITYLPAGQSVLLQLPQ
Sequence of proteins of U3A human fibrosarcoma cells (4462 proteins detected) (Homo sapiens, UniProt O75663) (O75663 whole entry): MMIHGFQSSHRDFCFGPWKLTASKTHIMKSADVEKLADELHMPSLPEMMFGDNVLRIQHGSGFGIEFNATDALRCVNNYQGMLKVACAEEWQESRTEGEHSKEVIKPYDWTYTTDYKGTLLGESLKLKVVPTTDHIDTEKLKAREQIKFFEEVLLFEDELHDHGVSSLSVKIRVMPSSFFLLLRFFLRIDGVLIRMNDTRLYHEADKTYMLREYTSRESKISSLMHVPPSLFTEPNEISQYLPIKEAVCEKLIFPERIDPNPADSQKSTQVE
Sequence of proteins of U3A human fibrosarcoma cells (4462 proteins detected) (Homo sapiens, UniProt Q9NZ52) (Q9NZ52 whole entry): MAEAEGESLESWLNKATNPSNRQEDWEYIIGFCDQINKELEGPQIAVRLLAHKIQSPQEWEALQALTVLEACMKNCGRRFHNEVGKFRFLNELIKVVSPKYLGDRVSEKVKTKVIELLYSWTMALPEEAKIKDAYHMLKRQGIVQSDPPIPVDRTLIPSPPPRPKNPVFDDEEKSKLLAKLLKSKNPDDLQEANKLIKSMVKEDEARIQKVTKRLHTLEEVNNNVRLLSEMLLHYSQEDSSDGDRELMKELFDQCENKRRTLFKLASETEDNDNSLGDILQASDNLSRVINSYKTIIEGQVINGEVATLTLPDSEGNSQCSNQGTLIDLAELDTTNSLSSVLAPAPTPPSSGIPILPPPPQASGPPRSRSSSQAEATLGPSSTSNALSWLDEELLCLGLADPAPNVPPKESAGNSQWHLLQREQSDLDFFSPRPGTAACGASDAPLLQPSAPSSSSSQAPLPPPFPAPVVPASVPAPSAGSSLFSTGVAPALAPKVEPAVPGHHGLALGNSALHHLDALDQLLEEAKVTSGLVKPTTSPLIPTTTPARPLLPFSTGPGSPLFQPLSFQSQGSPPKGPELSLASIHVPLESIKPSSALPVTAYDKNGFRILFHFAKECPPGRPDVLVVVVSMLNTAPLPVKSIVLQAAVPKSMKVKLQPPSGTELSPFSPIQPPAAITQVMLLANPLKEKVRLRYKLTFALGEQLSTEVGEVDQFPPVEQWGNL

CCc1nc(N)nc(N)c1-c1ccc(Cl)cc1 [pyrimethamine]
Log2 (PYR/DMSO) [1]: 0.23 | Log2 (PYR/DMSO) [2]: 0.16 | Log2 (PYR/DMSO) [3]: 0.20 | Log2 (PYR/DMSO) [4]: -0.04 | Log2 (PYR/DMSO) [5]: 0.14 | Log2 (PYR/DMSO) [6]: 0.14 | Log2 (PYR/DMSO) [7]: 0.19 | Log2 (PYR/DMSO) [8]: 0.22 | Log2 (PYR/DMSO) [9]: 0.21 | Log2 (PYR/DMSO) [10]: 0.23 | Log2 (PYR/DMSO) [11]: 0.14 | Log2 (PYR/DMSO) [12]: 0.15 | Log2 (PYR/DMSO) [13]: -0.03 | Log2 (PYR/DMSO) [14]: 0.16 | Log2 (PYR/DMSO) [15]: 0.17 | Log2 (PYR/DMSO) [16]: 0.15 | Log2 (PYR/DMSO) [17]: -0.04 | Log2 (PYR/DMSO) [18]: -0.04 | Log2 (PYR/DMSO) [19]: 0.16 | Log2 (PYR/DMSO) [20]: 0.19 | Log2 (PYR/DMSO), MGRN1 [21]: -0.25 | Log2 (PYR/DMSO) [22]: 0.16 | Log2 (PYR/DMSO) [23]: 0.15 | Log2 (PYR/DMSO), FEN1 [24]: 0.23 | engagement of TS (thymidylate synthase) [25]: no engagement | Log2 (PYR/DMSO) [26]: 0.20 | Log2 (PYR/DMSO) [27]: 0.17 | Log2 (PYR/DMSO) [28]: 0.21 | Log2 (PYR/DMSO) [29]: 0.19 | Log2 (PYR/DMSO) [30]: 0.16
